B1: full-length PEDF: Native human pigment epithelium-derived factor purified from human plasma via collagen I-sepharose resin (protein, listed as Homo sapiens)
chain: MQALVLLLCIGALLGHSSCQNPASPPEEGSPDPDSTGALVEEEDPFFKVPVNKLAAAVSNFGYDLYRVRSSTSPTTNVLLSPLSVATALSALSLGAEQRTESIIHRALYYDLISSPDIHGTYKELLDTVTAPQKNLKSASRIVFEKKLRIKSSFVAPLEKSYGTRPRVLTGNPRLDLQEINNWVQAQMKGKLARSTKEIPDEISILLLGVAHFKGQWVTKFDSRKTSLEDFYLDEERTVRVPMMSDPKAVLRYGLDSDLSCKIAQLPLTGSMSIIFFLPLKVTQNLTLIEESLTSEFIHDIDRELKTVQAVLTVPKLKLSYEGEVTKSLQEMKLQSLFDSPDFSKITGKPIKLTQVEHRAGFEWNEDGAGTTPSPGLQPAHLTFPLDYHLNQPFIFVLRDTDTGALLFIGKILDPRGP

Experiments:
[1] = system: limbal epithelial stem cells (LSCs); assay: In vitro LSC proliferation, BrdU pulse-labeling with ΔNp63α immunostaining; assay type: cell-based, New Zealand white rabbits; conditions: BrdU 2 hours; for percentage of BrdU and ΔNp63α-double positive cells per total ΔNp63α-positive cells: 25 nM peptide or 4.5 nM PEDF in medium, control medium 3.0±0.5%, mean±SEM
From the text: LSCs were isolated from six-month-old New Zealand white rabbits and used for cell-suspension culture in accordance with the method previously described by Cheng et al. (The growth-promoting effect of KGF on limbal epithelial cells is mediated by upregulation of DeltaNp63alpha through the p38 pathway. J Cell Sci 2009; 122 (Pt 24): 4473-4480) and Wang et al. (Importin 13 serves as a potential marker for corneal epithelial progenitor cells. Stem Cells 2009; 27: 2516-2526) with a slight modification. Rabbit limbal tissues were washed in PBS containing 100 U/ml penicillin and 50 μg/ml gentamicin. After carefully removing the iris, and excessive sclera, the limbal rings were exposed to dispase II (1.2 IU/ml in Hanks' balanced salt solution free of Mg^2+ and Ca^2+) at 4° C. for 16 hours. The loosened epithelial sheets were removed with a cell scraper and separated into single cells by enzymatic digestion (0.05% trypsin, and 0.01% EDTA) for 15 min at 37° C. with gentle shaking and transferred to a stop medium (9 ml of HEPES-buffered DMEM containing 10% FBS). Cells were then collected by centrifugation (400×g for 5 min).
About 1×10^5 cells were seeded on each wells of a 6-well plate and incubated in a DMEM/Ham's F-12 basal medium (10 mM HEPES, 5 ng/ml human EGF, 1% SITE liquid medium, antibiotic-antimicotic solutions, 0.5% DMSO and 0.5 μg/ml hydrocortisone) supplemented with 10% FBS for 2 days, and then shifted to a basal medium or basal medium containing 4.5 nM PEDF, 25 nM 39-mer, 25 nM 34-mer, 25 nM 29-mer, 25 nM 25-mer, 25 nM 20-mer, 25 nM 18-mer, 25 nM Mo 29-mer or 25-nM Mo 20-mer. The cells were continued cultivated at 37° C. under 5% CO2 for another 3 days until they reached confluence (passage 0). LSCs were co-cultured with MMC-treated NIH-3T3 fibroblast feeder cells located within trans-well (0.4 μm pore, BD Biosciences, Bedford, Mass.). For passage purpose, near-confluent cells were harvested again by enzymatic treatment (i.e., 0.25% trypsin), and then 1×10^5 subcultured cells were further cultured in the respective medium, and proliferative capacity of cells was compared every 4 days after continuously culture-subculture (passage).
De-paraffinized tissue sections or 4% paraformaldehyde-fixed LSCs were blocked with 10% goat serum and 5% BSA in PBST (PBS containing 0.1% Tween-20) for 1 hour. Staining was done using primary antibodies against ΔNp63α (1:150 dilution), BrdU (1:250 dilution), and keratin-3 (1:250 dilution) at 37° C. for 2 hours, followed by incubation with the appropriate rhodamine- or FITC-conjugated donkey IgG (1:500 dilution) for 1 hour at RT. Nuclei were identified by counterstaining with Hoechst 33258 for 7 minutes. Images were captured using a Zeiss epifluorescence microscope with a CCD camera and photographs were taken by using the Axiovert software.
2×10^5 limbal cells (the 1st passage) were seeded at a slide coated with FNC COATING MIX® solution (Athena Enzyme Systems, Baltimore, Md.) and incubated with a culture medium for one day. BrdU (final, 10 μM) was added to the culture for 2 hours. After being fixed with 4% paraformaldehyde, cells were exposed to cold methanol for 2 minutes, and then treated with 1 N HCl at RT for 1 hour before performing immunofluorescence. For animal study, BrdU was reconstituted in DMSO as stock (80 mM). 10 μl of BrdU mixed with 90 μl of PBS was intraperitoneally injected into mouse 3 hours prior to euthanasia. DNA synthesis was assessed by BrdU labeling with anti-BrdU antibodies.

corneal wound = assay: Corneal wound healing in mice, fluorescein staining; assay type: in vivo, C57BL/6 mice; conditions: for corneal re-epithelialization after 48 hours: 20 μl eye ointment with 50 μM peptide once a day, 2 mm wound; for residual epithelial defect, percentage of the original wound: 50 μM peptide eye ointment once a day
Procedure: The experiments were performed using eight-week-old female C57BL/6 mice, and the procedures were approved by the Mackay Memorial Hospital Review Board for animal investigation. Animals were anesthetized by an intraperitoneal injection of a mixture of zoletil (6 mg/kg) and xylazine (3 mg/kg). One filter paper (0.9 mm diameter) soaked with 20% ethanol was placed on the central cornea of right eye for one minute and then irrigated extensively with PBS. Subsequently, mechanical epithelial scrape was performed using a punch under a dissection microscope to create a circular injury (2 mm diameter) at the entire corneal region of the mouse eye without encroaching the corneal stroma, limbus or conjunctiva.
Each synthetic peptide (the 39-mer, 34-mer, 29-mer, 25-mer, 20-mer, 18-mer, Mo 29-mer or Mo 20-mer) was reconstituted in DMSO as stock (5 mM) and mixed with TOBREX® eye ointment (Alcon; containing 0.3% Tobramycin and 0.5% Chlorobutanol) to a concentration 50 μM. In each of the treatment group (n=6-10), the right eye was treated with 20 μl eye ointment containing the synthetic peptide once a day after the scrape injury. In the control group (n=20), right eye was treated with 20 μl of eye ointment mixed with vehicle DMSO. Wound size was determined by staining with topical fluorescein (Fluor-I-Strip, Ayerst Laboratories, Philadelphia, Pa.) and photographed with a digital camera. The area of defect was quantified from the photographs using a computer-assisted image analyzer (Adobe Photoshop CS3 10.0) and was calculated as the percentage of residual epithelial defect at each time point/initial wound area.
To investigate the effect of PEDF-derived short peptides on corneal wound healing in mice, corneal wound was created by a circular punch (2 mm diameter), then control eye-ointment or eye-ointment containing the short synthetic PEDF peptide(s) of this invention was applied to the wounded eye, and wound healing was subsequently evaluated by fluorescein staining. No significant differences in the size of the initial abrasion were noted between synthetic PEDF peptide-treated and control mice.

[2] = system: full-thickness skin excisional wounds; assay: Skin wound healing in mice, wound area from photographs; assay type: in vivo, C57L/B6 mice; conditions: for residual epithelial defects, percentage of the original wound: 25 μl skin ointment with 50 μM peptide once daily
Procedure: FIG. 6A provides photographs and FIG. 6B is a histogram, and together, they illustrate the skin (epithelial) wound-healing of mice from treatment groups according to another example of the present disclosure. 4 mm punch wounds were made on the dorsal side of C57/B6 mice. Skin ointment was treated once a day. Photographs of the wounded skin and ruler (scale 10 mm) were captured with a CCD camera (Olympus). The residual epithelial defect (%) is presented as percentage of the original wound. Data are shown as mean±SE.
To perform full-thickness skin excision, 8- to 10-week-old C57L/B6 mice were respectively anesthetized by an intraperitoneal injection of a mixture of zoletil (6 mg/kg) and xylazine (3 mg/kg). Two full-thickness skin excisional wounds, 4 mm in diameter were made on either side of the dorsal midline using Sklar Tru-Punch disposable biopsy punch (Sklar, West Chester, Pa., USA). In each treatment group (n=6), the skin wound was treated with 25 μl skin ointment (containing 50 μM synthetic peptide and 0.006 μl DMSO vehicle) once daily after the skin scraping. In the control group (n=6), skin wound was treated with 25 μl of skin ointment with equal concentration of DMSO. Each gram of the above skin ointment contains 5 mg neomycin sulfate and 12.5 mg Bacitracin Zinc. Wounds were left uncovered and harvested 4 and 7 days after injury. Mice were housed individually during the healing period.
The area of wound was quantified from the photographs using a computer-assisted image analyzer (Adobe Photoshop CS3 10.0) and was calculated as the percentage of residual epithelial defect at each time point/initial wound area.

[3] = system: hair follicle stem cells (HFSCs); assay: In vitro HFSC proliferation, BrdU pulse-labeling with Lgr6 immunostaining; assay type: cell-based, Human; conditions: 50 nM peptide or 4.5 nM PEDF in medium; BrdU 2 hours; control 31.9±5.6%
Procedure: FIG. 5A provides immunofluorescence microscopy photographs and FIG. 5B is a histogram, and together, they illustrate the in vitro proliferation of HFSCs from treatment groups according to one example of the present disclosure. HFSC proliferation was determined by BrdU labeling for 2 hours. HFSCs (Lgr6, green) and BrdU (red) were detected by immunofluorescence microscopy (original magnification, ×1000). Twenty randomly selected fields in each group were photographed, and the percentage of BrdU and Lgr6-double positive cells (pale pink) per total Lgr6-positive cells was calculated. *P<0.001 versus untreated cells.
Human hair follicles were collected from hairs of healthy donors. The follicles were dissected with tweezers under microscope and most of adipose and connective tissue was removed. The bulge region of hair follicle under the sebaceous gland was cut and then bulge fragments (including central isthmus) were transferred into a 35-mm dish containing 1 ml of collagenase A (1 mg/ml; Roche) and incubated for 1.5 hours at 37° C. to digest the collagen capsule. Subsequently, the bulge fragments were transferred into a fresh cell culture dish containing dispase II (2.4 U/ml)/0.05% trypsin and further incubated for 1.5 hours at 37° C. to obtain a single cell suspension.
After mechanical dissection and enzymatic digestion, the suspended bulge cells isolated from five bulge fragments were seeded into a well of 12-well culture plate and incubated with the basal medium for 5 days to facilitate cell adhesion. The basal medium contains four parts Gibco calcium-free Dulbecco's modified Eagle's medium (DMEM) and one part Ham's F12 medium (calcium concentration reached about 0.25 mM) and supplemented with 10% FBS, 10 ng/ml human epidermal growth factor, 500 mg/I L-glutamine, 0.2% bovine pituitary extract, […] hydrocortisone, 1% ITSE as well as antibiotic-antimicotic solutions. Cultivation method was similar to that of Blazejewska et al. (Stem Cells 2009; 27:642). After 5 days of incubation, cells were cultured in the serum-free basal medium or basal medium containing 4.5 nM PEDF, 50 nM 29-mer, or 50 nM 20-mer, until near confluence (about 2 weeks; passage 0). The medium was changed every 2 to 3 days. The bulge cells were co-cultured with 3T3 fibroblast feeder cells. For passage, near-confluent cells were harvested by enzymatic treatment (i.e., 0.25% trypsin) for 5 min at 37° C. Approximately 1×10^5 human bulge cells were transferred to a new dish and allowed to grow for 14 days to near confluence (passage 1). […]

[4] = day 4 post-injury, control 61.5±3.2%
[5] = day 7 post-injury, control 44.5±5.3%

| Molecule | percentage of BrdU and ΔNp63α-double positive cells per total ΔNp63α-positive cells [1] | corneal re-epithelialization after 48 hours (corneal wound) | residual epithelial defect, percentage of the original wound (corneal wound; 24 hours, control 84.9±5.1%) | residual epithelial defect, percentage of the original wound (corneal wound; 48 hours, control 39.5±3.1%) | residual epithelial defects, percentage of the original wound [2, 4] | residual epithelial defects, percentage of the original wound [2, 5] | enhanced LSC proliferation versus control medium ([1]; 25 nM peptide in medium) | promotion of skin wound healing ([2]; days 4 and 7, 50 μM peptide skin ointment once daily) | percentage of BrdU and Lgr6-double positive cells per total Lgr6-positive cells [3] |
| --- | --- | --- | --- | --- | --- | --- | --- | --- | --- |
| LSVATALSALSLGAEQRTESIIHRALYYDLISSPDIHGT [39-mer, synthetic peptide, residues 83-121 of human PEDF] | 30.1±1.9% | complete corneal re-epithelialization | 37.2±4.3% | 4.8±2.7% | 48.1±3.2% | 18.4±5.7% |  |  |  |
| EQRTESIIHRALYYDLISSPDIHGT [25-mer] |  | incompletely healed wounds |  |  |  |  | enhanced proliferation was not observed | not able to promote wound healing |  |
| ALSALSLGAEQRTESIIHRALYYDLISSPDIHGT [34-mer, short synthetic PEDF peptide derived from the 39-mer] | 30.0±3.4% | complete corneal re-epithelialization | 40.6±7.2% | 4.6±2.1% | 41.4±2.5% | 17.9±6.1% |  |  |  |
| B1 | 22.0±1.5% |  |  |  |  |  |  |  | 73.8±6.0% |
